In the NIST ThermoML archive (doi:10.1016/j.jct.2018.08.013):
Values joined by “and” are separate entries in the source; they are usually repeats but may differ in a detail not shown here. Equal values may be shown once.

Columns and labels:
[1] = specific heat capacity at constant pressure; xn = mol fraction of the nth substance listed; conditions: 100 kPa, Crystal of intercomponent compound 1, x2 = 0.486
[2] = xn = mol fraction of the nth substance listed; conditions: 298 K; 100 kPa; Crystal of intercomponent compound 1; X-ray diffraction; x2 = 0.486

[Te] [tellurium] + [Ga]
[1]
Conditions	specific heat capacity
241.78 K, relaxation calorimetry	242.8 J/K/kg
241.86 K, relaxation calorimetry	243.61 J/K/kg
241.89 K, relaxation calorimetry	243.51 J/K/kg
245.93 K, relaxation calorimetry	243.46 J/K/kg
245.97 K, relaxation calorimetry	243.31 J/K/kg
246.62 K, relaxation calorimetry	244.93 J/K/kg
246.79 K, relaxation calorimetry	243.87 J/K/kg
248.47 K, relaxation calorimetry	241.79 J/K/kg
248.52 K, relaxation calorimetry	242.09 J/K/kg
248.53 K, relaxation calorimetry	241.99 J/K/kg
249.9 K, relaxation calorimetry	242.85 J/K/kg
249.93 K, relaxation calorimetry	242.9 J/K/kg
251.64 K, relaxation calorimetry	245.64 J/K/kg
251.81 K, relaxation calorimetry	244.63 J/K/kg
253.96 K, relaxation calorimetry	242.96 J/K/kg
254 K, relaxation calorimetry	243.06 J/K/kg
256.38 K, relaxation calorimetry	242.14 J/K/kg
256.44 K, relaxation calorimetry	242.35 J/K/kg and 242.65 J/K/kg
256.66 K, relaxation calorimetry	246.25 J/K/kg
256.83 K, relaxation calorimetry	245.08 J/K/kg
258.12 K, relaxation calorimetry	244.12 J/K/kg
258.16 K, relaxation calorimetry	244.02 J/K/kg
260.51 K, Extra sensitive DSC	245.54 J/K/kg
261.66 K, relaxation calorimetry	248.07 J/K/kg
261.82 K, relaxation calorimetry	246.86 J/K/kg
262.18 K, relaxation calorimetry	245.13 J/K/kg
262.22 K, relaxation calorimetry	244.93 J/K/kg
263.12 K, Extra sensitive DSC	246.4 J/K/kg
264.28 K, relaxation calorimetry	243.97 J/K/kg
264.35 K, relaxation calorimetry	244.43 J/K/kg and 244.17 J/K/kg
265.73 K, Extra sensitive DSC	246.3 J/K/kg
266.13 K, relaxation calorimetry	246.15 J/K/kg
266.19 K, relaxation calorimetry	245.59 J/K/kg
266.68 K, relaxation calorimetry	246.55 J/K/kg
266.71 K, relaxation calorimetry	246.55 J/K/kg
266.72 K, relaxation calorimetry	246.4 J/K/kg
268.33 K, Extra sensitive DSC	246.81 J/K/kg
270.07 K, Extra sensitive DSC	246.96 J/K/kg
270.3 K, relaxation calorimetry	248.78 J/K/kg
270.35 K, relaxation calorimetry	247.67 J/K/kg
270.64 K, relaxation calorimetry	247.06 J/K/kg
270.65 K, relaxation calorimetry	246.66 J/K/kg
271.54 K, relaxation calorimetry	248.83 J/K/kg
271.73 K, relaxation calorimetry	246.76 J/K/kg
271.83 K, relaxation calorimetry	246.35 J/K/kg
272.68 K, Extra sensitive DSC	247.06 J/K/kg
272.79 K, relaxation calorimetry	247.62 J/K/kg
272.8 K, relaxation calorimetry	247.31 J/K/kg
273.54 K, relaxation calorimetry	249.19 J/K/kg
273.74 K, relaxation calorimetry	246.71 J/K/kg
273.84 K, relaxation calorimetry	246.55 J/K/kg
275.28 K, Extra sensitive DSC	247.26 J/K/kg
275.55 K, relaxation calorimetry	249.14 J/K/kg
275.75 K, relaxation calorimetry	246.76 J/K/kg
275.85 K, relaxation calorimetry	246.5 J/K/kg
277.54 K, relaxation calorimetry	249.29 J/K/kg
277.75 K, relaxation calorimetry	246.76 J/K/kg
277.85 K, relaxation calorimetry	246.55 J/K/kg
277.88 K, Extra sensitive DSC	247.72 J/K/kg
279.54 K, relaxation calorimetry	249.09 J/K/kg
279.76 K, relaxation calorimetry	246.5 J/K/kg
279.87 K, relaxation calorimetry	246.45 J/K/kg
280.49 K, Extra sensitive DSC	247.87 J/K/kg
281.52 K, relaxation calorimetry	249.09 J/K/kg
281.76 K, relaxation calorimetry	246.25 J/K/kg
281.87 K, relaxation calorimetry	246.1 J/K/kg
283.09 K, Extra sensitive DSC	248.33 J/K/kg
283.53 K, relaxation calorimetry	248.99 J/K/kg
283.78 K, relaxation calorimetry	246.15 J/K/kg
283.87 K, relaxation calorimetry	246.66 J/K/kg
285.53 K, relaxation calorimetry	249.44 J/K/kg
285.7 K, Extra sensitive DSC	248.58 J/K/kg
285.78 K, relaxation calorimetry	246.4 J/K/kg
285.88 K, relaxation calorimetry	246.6 J/K/kg
287.54 K, relaxation calorimetry	249.54 J/K/kg
287.78 K, relaxation calorimetry	246.35 J/K/kg
287.89 K, relaxation calorimetry	246.66 J/K/kg
288.3 K, Extra sensitive DSC	248.89 J/K/kg
289.53 K, relaxation calorimetry	249.65 J/K/kg
289.79 K, relaxation calorimetry	246.55 J/K/kg
289.89 K, relaxation calorimetry	246.86 J/K/kg
290.04 K, Extra sensitive DSC	248.94 J/K/kg
291.53 K, relaxation calorimetry	250.41 J/K/kg
291.8 K, relaxation calorimetry	247.16 J/K/kg
291.9 K, relaxation calorimetry	247.52 J/K/kg
292.64 K, Extra sensitive DSC	249.09 J/K/kg
293.52 K, relaxation calorimetry	251.32 J/K/kg
293.81 K, relaxation calorimetry	248.68 J/K/kg
293.9 K, relaxation calorimetry	248.89 J/K/kg
295.25 K, Extra sensitive DSC	249.29 J/K/kg
295.51 K, relaxation calorimetry	251.37 J/K/kg
295.84 K, relaxation calorimetry	249.34 J/K/kg
295.91 K, relaxation calorimetry	249.34 J/K/kg
297.52 K, relaxation calorimetry	250.81 J/K/kg
297.83 K, relaxation calorimetry	250.71 J/K/kg
297.85 K, Extra sensitive DSC	249.75 J/K/kg
297.93 K, relaxation calorimetry	248.68 J/K/kg
299.53 K, relaxation calorimetry	250.25 J/K/kg
299.85 K, relaxation calorimetry	250.15 J/K/kg
299.94 K, relaxation calorimetry	248.63 J/K/kg
300.45 K, Extra sensitive DSC	249.9 J/K/kg
301.54 K, relaxation calorimetry	251.06 J/K/kg
301.87 K, relaxation calorimetry	250.86 J/K/kg
301.95 K, relaxation calorimetry	249.39 J/K/kg
303.06 K, Extra sensitive DSC	250.51 J/K/kg
303.81 K, relaxation calorimetry	250.56 J/K/kg
303.84 K, relaxation calorimetry	252.33 J/K/kg
303.87 K, relaxation calorimetry	250.51 J/K/kg
305.66 K, Extra sensitive DSC	250.76 J/K/kg
307.4 K, Extra sensitive DSC	250.81 J/K/kg
310 K, Extra sensitive DSC	251.22 J/K/kg
312.6 K, Extra sensitive DSC	251.42 J/K/kg
315.21 K, Extra sensitive DSC	251.88 J/K/kg
317.81 K, Extra sensitive DSC	251.93 J/K/kg
320.41 K, Extra sensitive DSC	252.23 J/K/kg
323.02 K, Extra sensitive DSC	252.48 J/K/kg
325.62 K, Extra sensitive DSC	252.53 J/K/kg
327.36 K, Extra sensitive DSC	252.74 J/K/kg
329.96 K, Extra sensitive DSC	253.04 J/K/kg
332.56 K, Extra sensitive DSC	253.19 J/K/kg
335.17 K, Extra sensitive DSC	253.5 J/K/kg
337.77 K, Extra sensitive DSC	253.7 J/K/kg
340.38 K, Extra sensitive DSC	254 J/K/kg
342.98 K, Extra sensitive DSC	254.41 J/K/kg
345.58 K, Extra sensitive DSC	254.41 J/K/kg
348.19 K, Extra sensitive DSC	254.76 J/K/kg
349.92 K, Extra sensitive DSC	254.76 J/K/kg
352.53 K, Extra sensitive DSC	254.66 J/K/kg
355.13 K, Extra sensitive DSC	255.32 J/K/kg
356.87 K, Extra sensitive DSC	255.07 J/K/kg
358.6 K, Extra sensitive DSC	254.97 J/K/kg

Conditions	mass density [kg/m3]
[2]	5448
